Assay results taken from patent US7915316B2, “Sulfonamides” (Allergan, Inc, priority 2005, dated 2011).

Legend:
[1] = molecular target: T1, EP4 (Homo sapiens, UniProt P35408); test: EP4 receptor binding (bhEP4 / EP4 Binding); conditions: for IC50: Table 1; for EC50 / EP4 Binding % Inh: Table 2; as to EP4 Binding % Inh: test concentration or dose not given here
[2] = molecular target: T2, EP2 (Homo sapiens, UniProt P43116); test: cAMP assay; assay type: cell-based
[3] = molecular target: T2, EP2; test: functional activity at hEP2 (fhEP2); assay type: cell-based; conditions: Table 1
[4] = molecular target: T2, EP2; test: EP2 receptor binding (bhEP2 / EP2 Binding); conditions: for IC50: Table 1; for EC50 / EP2 Binding % Inh: Table 2; as to EP2 Binding % Inh: test concentration or dose not given here
[5] = molecular target: T2, EP2; test: Ca2+ signal, EP2; assay type: cell-based; conditions: for Emax: relative to PGE2
[6] = molecular target: IP (Homo sapiens, UniProt P43119); test: activity at IP receptor; conditions: Table 2
[7] = molecular target: T3, TP (Homo sapiens, UniProt P21731); test: activity at TP receptor; conditions: Table 2
T3 sequence (P21731 1-343): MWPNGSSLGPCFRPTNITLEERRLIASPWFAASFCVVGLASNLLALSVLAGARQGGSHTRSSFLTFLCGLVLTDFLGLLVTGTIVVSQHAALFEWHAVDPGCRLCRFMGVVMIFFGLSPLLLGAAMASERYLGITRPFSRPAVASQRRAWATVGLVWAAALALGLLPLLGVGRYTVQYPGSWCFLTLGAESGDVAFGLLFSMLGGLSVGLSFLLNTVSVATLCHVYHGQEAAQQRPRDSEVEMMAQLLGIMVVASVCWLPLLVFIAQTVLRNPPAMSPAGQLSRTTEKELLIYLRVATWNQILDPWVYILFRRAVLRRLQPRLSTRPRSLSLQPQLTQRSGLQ

[8] = molecular target: T1, EP4; test: Ca2+ signal, EP4; assay type: cell-based; conditions: relative to PGE2
[9] = test system: EP2 and EP4 receptors; test: in-vitro assay for binding to and activity at various prostaglandin receptors; conditions: as compared to the FP, EP1, TP, IP and DP receptors

T2 sequence (P43116 whole entry): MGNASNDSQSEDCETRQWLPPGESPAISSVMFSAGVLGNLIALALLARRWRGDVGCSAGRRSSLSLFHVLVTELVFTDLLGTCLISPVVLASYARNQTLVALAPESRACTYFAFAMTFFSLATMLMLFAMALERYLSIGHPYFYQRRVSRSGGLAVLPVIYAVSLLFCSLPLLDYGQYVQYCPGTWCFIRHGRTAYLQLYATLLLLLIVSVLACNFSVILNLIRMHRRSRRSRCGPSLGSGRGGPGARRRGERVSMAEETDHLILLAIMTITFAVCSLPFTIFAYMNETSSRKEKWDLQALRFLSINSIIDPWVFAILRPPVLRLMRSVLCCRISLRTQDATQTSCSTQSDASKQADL
T1 sequence (P35408 whole entry): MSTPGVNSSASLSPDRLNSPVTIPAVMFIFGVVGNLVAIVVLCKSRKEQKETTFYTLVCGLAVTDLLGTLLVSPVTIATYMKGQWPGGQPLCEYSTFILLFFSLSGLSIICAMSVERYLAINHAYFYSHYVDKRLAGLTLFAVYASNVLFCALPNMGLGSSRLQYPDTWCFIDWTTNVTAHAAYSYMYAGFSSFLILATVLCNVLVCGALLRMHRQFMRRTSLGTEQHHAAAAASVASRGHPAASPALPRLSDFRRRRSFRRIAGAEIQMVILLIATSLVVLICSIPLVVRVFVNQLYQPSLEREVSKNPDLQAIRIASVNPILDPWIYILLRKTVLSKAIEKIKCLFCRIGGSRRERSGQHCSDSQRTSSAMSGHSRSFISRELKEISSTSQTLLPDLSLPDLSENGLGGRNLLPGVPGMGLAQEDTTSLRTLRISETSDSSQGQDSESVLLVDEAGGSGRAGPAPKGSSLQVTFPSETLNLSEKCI
Chain of IP (P43119 whole entry): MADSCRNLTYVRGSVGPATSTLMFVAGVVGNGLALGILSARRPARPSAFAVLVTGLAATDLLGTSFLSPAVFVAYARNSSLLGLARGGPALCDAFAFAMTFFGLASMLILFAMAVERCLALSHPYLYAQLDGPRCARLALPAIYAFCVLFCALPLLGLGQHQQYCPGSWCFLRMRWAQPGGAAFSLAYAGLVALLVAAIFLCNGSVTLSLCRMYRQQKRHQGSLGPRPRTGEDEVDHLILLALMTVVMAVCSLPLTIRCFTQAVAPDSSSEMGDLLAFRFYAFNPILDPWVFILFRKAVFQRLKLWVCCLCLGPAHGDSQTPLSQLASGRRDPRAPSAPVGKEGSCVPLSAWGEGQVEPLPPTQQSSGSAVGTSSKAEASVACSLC

Compound | IC50 [1] | EC50 ([2]; Table 1, read-out: cAMP) | EC50 [3] | IC50 [4] | EC50 [1] | EP4 Binding % Inh [1] | EC50 [5] | Emax [5] | EC50 ([2]; Table 2, read-out: cAMP EC50) | IP [6] | TP [7] | EC50 [4] | EP2 Binding % Inh [4] | Emax [8] | selectivity at EP2 and EP4 receptors [9]
CS(=O)(=O)N(C/C=C\CCCC(=O)O)CCOc1cc(Cl)cc(Cl)c1 |  |  |  |  | 2920 nM | 64% | 2960 nM | 83% | 214 nM | 403 | 7008 | 1900 nM | 81% | 10% | 
CS(=O)(=O)N(CC#CCCCC(=O)O)CCOc1cc(Cl)cc(Cl)c1 |  |  |  |  | 4170 nM | 55% | 1250 nM | 90% | 84 nM | IP = 868 |  | 1130 nM | 87% | 5% | 
CCCCCC(O)c1ccc(CN(Cc2ccc(OCC(=O)O)cc2)S(=O)(=O)c2cccnc2)cc1 (centres unmarked) |  |  |  |  | 1320 nM | 89% | 11 nM | 92% | 3.5 nM |  |  | 208 nM | 97% | 2% | 
CC(C)(C)c1ccc(CN(Cc2ccc(OCC(=O)O)cc2)S(=O)(=O)c2cccnc2)cc1 [4-[[4-(1-t-butyl)benzyl]pyridinesulfonylaminomethyl]phenoxyacetic acid] |  |  |  |  | 1340 nM | 59% | 20 nM | 87% | 18 nM |  |  | 100 nM | 93% | 0% | 
CCCCCC(O)c1ccc(CN(CC#CCCCC(=O)O)S(C)(=O)=O)cc1 (centres unmarked) [7-[[4-(1-hydroxyhexyl)benzyl]methanesulfonylamino]hept-5-yne-oic acid] |  |  |  |  |  |  | 620 nM |  | 24 nM |  |  | 5680 nM |  |  | 
CCCCCC(O)c1ccc(CN(CCCCCCC(=O)O)S(C)(=O)=O)cc1 (centres unmarked) [Compound 12, 7-[[4-(1-Hydroxyhexyl)benzyl]methanesulfonylamino]heptanoic acid] |  | 16 nM | 406 nM | 1690 nM |  |  |  |  |  |  |  |  |  |  | selective at the EP2 and EP4 receptors

Further lines, results first:

IC50 [1] | EC50 ([2]; Table 1, read-out: cAMP) | EC50 [3] | IC50 [4] | EC50 [1] | EP4 Binding % Inh [1] | EC50 [5] | Emax [5] | EC50 ([2]; Table 2, read-out: cAMP EC50) | IP [6] | TP [7] | EC50 [4] | EP2 Binding % Inh [4] | Emax [8] | selectivity at EP2 and EP4 receptors [9] | Compound
546 nM | 138 nM | 275 nM | 4730 nM |  |  |  |  |  |  |  |  |  |  |  | CCCCCC(O)c1ccc(CN(CCCCCCC(=O)O)S(=O)(=O)c2cccnc2)cc1 (centres unmarked)
150 nM |  | 634 nM |  |  |  |  |  |  |  |  |  |  |  |  | CCCCCC(O)c1ccc(CN(CCCCCCC(=O)O)S(=O)(=O)c2ccccc2)cc1 (centres unmarked) [7-[[4-(1-hydroxyhexyl)benzyl]benzenesulfonylamino]heptanoic acid]
90 nM | > 10000 nM | 600 nM | 1490 nM |  |  |  |  |  |  |  |  |  |  |  | CCCCCC(O)c1ccc(CN(CCCCCCC(=O)O)S(=O)(=O)c2cccs2)cc1 (centres unmarked) [7-[[4-(1-hydroxyhexyl)benzyl]thiophenesulfonylamino]heptanoic acid]
 |  |  |  | 373 nM | 99% | 964 nM | 78% | 965 nM |  |  | 1540 nM | 82% | 11% |  | CC(C)(C)c1ccc(CN(CCCCCCC(=O)O)S(=O)(=O)c2ccccc2)cc1 [7-[[4-(1-t-butyl)benzyl]benzenesulfonylamino]heptanoic acid]
 |  |  |  |  | 41% | 2310 nM | 89% | 156 nM | IP = 2561 |  |  | 60% | 2% |  | CC(C)(C)c1ccc(CN(CCCCCCC(=O)O)S(C)(=O)=O)cc1 [7-[[4-(1-t-butyl)benzyl]methanesulfonylamino]heptanoic acid]
 |  |  |  | 1380 nM | 71% | 591 nM | 83% | 126 nM |  |  | 829 nM | 73% | 1% |  | CC(C)(C)c1ccc(CN(CCCCCCC(=O)O)S(=O)(=O)c2cccnc2)cc1 [7-[[4-(1-t-butyl)benzyl]pyridinesulfonylamino]heptanoic acid]
 |  |  |  | 706 nM | 94% | 1130 nM | 71% | 1970 nM |  |  | 493 nM | 76% | 9% |  | CC(C)(C)c1ccc(CN(CCCCCCC(=O)O)S(=O)(=O)c2cccs2)cc1 [7-[[4-(1-t-butyl)benzyl]thiophenelsulfonylamino]heptanoic acid]
